8 compounds from ChEMBL document CHEMBL1201862, “PubChem BioAssay data set” (2004) can be followed below.

Holding throughout (test): DTP human tumour cell line panel, 48 h
Assay [1] concerns SF-539.
The test system of assay [2] is CCRF-CEM.
In assay [3] the test system is NCI-H226.
Assay [4] relates to UACC-62.
In assay [5] the test system is TK-10.
For assay [6], the system named is SF-295.
The subject of assay [7] is KM12.
The test system of assay [8] is NCI-H460.
Assay [9] concerns HCT-15.
Assay [10] deals with SN12C.
Assay [11] deals with OVCAR-3.
The test system of assay [12] is SR.
Assay [13] relates to PC-3.
Assay [14] concerns SK-MEL-5.
In assay [15] the test system is SNB-19.
In assay [16] the test system is 786-0.
Assay [17] relates to HT-29.
Assay [18] deals with BT-549.
Assay [19] relates to LOX IMVI.

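Five compound concentrations were applied to cells in 96-well plates for 48 hours; endpoints were derived by simple linear interpolation of the resulting dose-response curve. Here, GI50 denotes the concentration required for 50% inhibition of growth.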 Calls of active or inactive are those of the source. Cut-off read from the data, not from the text of the source: active = GI50 up to about 1.1 µM and inactive = higher.

As usually defined, the GI50 is the concentration giving 50% growth inhibition. On to `Cc1sc(Nc2ccc(Nc3nc(-c4ccccc4)c(C)s3)cc2)nc1-c1ccccc1`, for which the GI50 in assay [1] was 26.3 µM (inactive); in assay [2], 2.29 µM (inactive); in assay [3], 63.1 µM (inactive); in assay [4], 54.3 µM (inactive); in [5], 57.8 µM (inactive); in assay [6], 95.9 µM (inactive). Further, the GI50 in [7] is > 100 µM (inactive); in assay [8], 18.2 µM (inactive); in assay [9] it was 44.8 µM; in [10], 31.3 µM (inactive); in assay [11], > 100 µM (inactive); in [12], 20.9 µM (inactive). For the same compound, the GI50 is 16.6 µM (inactive) in [13]; 22.6 µM (inactive) in [14]; > 100 µM (inactive) in assay [15]; 21.2 µM (inactive) in assay [16]; 60 µM (inactive) in assay [17]; > 100 µM (inactive) in assay [18]. Further, the GI50 in assay [19] was 40.6 µM (inactive).

As for `CCCOc1cc2c(cc1O)CC[C@@H]1[C@@H]2CC[C@]2(C)[C@@H](O)CC[C@@H]12`, the GI50 is 1.48 µM (inactive) in [1]; 1.56 µM (inactive) in [2]; 5.97 µM (inactive) in assay [3]; 1.2 µM (inactive) in [4]; 7.5 µM (inactive) in [5]; 2.76 µM (inactive) in assay [6]. Further, the GI50 in assay [7] was 4.15 µM (inactive); in assay [8] it was 1.62 µM (inactive); in [9] it was 0.687 µM; in assay [10], 4.97 µM (inactive); in [11], 1.55 µM (inactive); in assay [12], 0.209 µM (active). Moreover, the GI50 in assay [13] is 4.76 µM (inactive); in [14] it was 2.12 µM (inactive); in assay [15] it was 6.71 µM (inactive); in assay [16] it was 3.63 µM (inactive); in assay [17] it was 7.57 µM (inactive); in assay [18] it was 0.524 µM (active). The GI50 in assay [19] is 2.74 µM (inactive).

Regarding `COC(=O)/C=C(\C(=O)OC)c1cc(C)c2cc(C(C)C)ccc(C)c1-2`, the GI50 is 30.5 µM (inactive) in [1]; 71.4 µM (inactive) in [2]; 53.3 µM (inactive) in assay [3]; 32.2 µM (inactive) in assay [4]; 83.9 µM (inactive) in assay [5]; 41.7 µM (inactive) in [6]. The GI50 in assay [7] was 37.4 µM (inactive); in [8], 40.7 µM (inactive); in [9], 11.7 µM; in assay [10], 53.3 µM (inactive); in [11] it was 49.4 µM (inactive); in assay [12], > 100 µM (inactive). Also, the GI50 in assay [13] is 29 µM (inactive); in [14] it was 25.6 µM (inactive); in [15] it was > 100 µM (inactive); in [16], 75.5 µM (inactive); in assay [17], 13.3 µM (inactive); in assay [18], 39.6 µM (inactive). Also, the GI50 in assay [19] is 45.2 µM (inactive).

Turning to `CC(NC(=O)C(N)CC(=O)O)NC(=O)N(C)C(C)(C)C` (configuration not stated), the GI50 in assay [1], in [2], in assay [3], in assay [4], in assay [5] and in assay [6] was > 100 µM (inactive) in each case. Further, the GI50 was > 100 µM (inactive) in [7]; > 100 µM (inactive) in assay [8]; more than 100 µM in assay [9]; > 100 µM (inactive) in assay [10]; > 100 µM (inactive) in [11]; > 100 µM (inactive) in [12]. In addition, the GI50 in [13], in assay [14], in [15], in assay [16], in assay [17] and in [18] was > 100 µM (inactive) throughout. In addition, in assay [19], the GI50 was > 100 µM (inactive).

Consider `COc1cc(C2SC(=N)Nc3c2c(C)nn3C(=O)c2ccccc2O)cc(OC)c1OC` (configuration not stated), for which the GI50 in assay [1] is 4.42 µM (inactive); in [2], 3.85 µM (inactive); in assay [3], > 10 µM (inactive); in [4], 2.72 µM (inactive); in assay [5] it was > 10 µM (inactive); in assay [6] it was 3.51 µM (inactive). Also, the GI50 in assay [7] was 8.3 µM (inactive); in [8], 7.41 µM (inactive); in assay [9], 4.31 µM; in assay [10], 9.18 µM (inactive); in assay [11], > 10 µM (inactive); in assay [12], 9.35 µM (inactive). Moreover, the GI50 in assay [13] was 5.48 µM (inactive); in assay [14], 3.78 µM (inactive); in assay [15] it was 8.71 µM (inactive); in assay [16], 9.14 µM (inactive); in assay [17], > 10 µM (inactive); in assay [18] it was > 10 µM (inactive). For the same compound, the GI50 in assay [19] was 5.16 µM (inactive).

As to `O=c1n(/N=C/c2ccccc2)c(=O)n2n1C1C=CC2CC1`, the GI50 in assay [1], in [2], in [3], in assay [4], in assay [5] and in [6] was > 100 µM (inactive) each time. For the same compound, the GI50 in assay [7] was > 100 µM (inactive); in assay [8], > 100 µM (inactive); in assay [9], more than 100 µM; in [10], > 100 µM (inactive); in [11] it was > 100 µM (inactive); in [12], > 100 µM (inactive). In addition, the GI50 in assay [13], in assay [14], in [15], in assay [16], in assay [17] and in assay [18] was > 100 µM (inactive) throughout. Besides, the GI50 in [19] was > 100 µM (inactive).

In the case of `CNC(=O)OCc1c2ccncc2c(C)c2c1[nH]c1ccccc12`, the GI50 in assay [1] is 0.207 µM (active); in assay [2] it was 0.0962 µM (active); in [3], 0.258 µM (active); in [4], 0.238 µM (active); in assay [5] it was 0.237 µM (active); in assay [6], 0.292 µM (active). Further, the GI50 is 0.449 µM (active) in assay [7]; 0.167 µM (active) in assay [8]; 0.234 µM in [9]; 0.275 µM (active) in assay [10]; 0.28 µM (active) in assay [11]; < 0.01 µM (active) in [12]. For the same compound, the GI50 in [13] was 0.723 µM (active); in assay [14], 0.242 µM (active); in assay [15] it was 0.372 µM (active); in assay [16], 0.262 µM (active); in assay [17] it was 0.215 µM (active); in assay [18] it was 0.32 µM (active). Besides, in assay [19], the GI50 was 0.136 µM (active).

Consider `COc1cccc(-c2cc(O)c3c(C)cc(C)nc3n2)c1`, for which the GI50 is 0.455 µM (active) in [1]; 0.431 µM (active) in assay [2]; 0.394 µM (active) in [3]; 0.448 µM (active) in [4]; 40.8 µM (inactive) in assay [5]; 0.493 µM (active) in assay [6]. The GI50 is 0.264 µM (active) in assay [7]; 0.455 µM (active) in assay [8]; 0.399 µM in assay [9]; 0.845 µM (active) in assay [10]; 0.228 µM (active) in assay [11]; 0.136 µM (active) in [12]. Further, the GI50 in assay [13] was 0.304 µM (active); in [14] it was 0.301 µM (active); in [15], 0.714 µM (active); in assay [16], 0.435 µM (active); in assay [17], 0.34 µM (active); in [18], 12.3 µM (inactive). Further, the GI50 in assay [19] is 0.703 µM (active).
